The data set in a line: Solubility in solvents (qualitative). Format: physicochemical.

In the case of `CCOC(=O)Oc1ccc(/C=C/C=C/C(=O)NCCN2CCC(OC(c3ccccc3)c3ccccc3)CC2)cc1OC` [TMK 688], the solubility entry runs as follows: (in acetone) “can easily be dissolved”; (in acetonitrile) “can be well dissolved”; (in dichloroethane) “can easily be dissolved”; (in ethanol) “cannot be dissolved well”; (in water) “can hardly be dissolved”.

Values taken from patent EP0537070A1, “Compositions containing compound TMK688 and its analogs” (TERUMO KABUSHIKI KAISHA, priority 1991, dated 1993).
